Experiments:
[1] = biological target: T1, human liver-derived metalloprotease (Homo sapiens, UniProt Q99542); assay: Inhibitor screening system with fluorogenic substrate DNP-Pro-Cha-Abu-Cys(Me)-His-Ala-Lys(N-Me-Abz)-NH2; assay type: biochemical; design: the objective metalloprotease of about 46 kDa was eluted with buffer E (QIAexpress System); 6xHis (vector-encoded N-terminal tag of pQE30); made in house; host or cells: Escherichia coli JM109/pNHMB; conditions: 10 μM substrate, 37° C., 16 hours, excitation 365 nm, emission 460 nm; read-out: 50% inhibitory concentration of metalloprotease activity
T1 sequence (Q99542 98-508): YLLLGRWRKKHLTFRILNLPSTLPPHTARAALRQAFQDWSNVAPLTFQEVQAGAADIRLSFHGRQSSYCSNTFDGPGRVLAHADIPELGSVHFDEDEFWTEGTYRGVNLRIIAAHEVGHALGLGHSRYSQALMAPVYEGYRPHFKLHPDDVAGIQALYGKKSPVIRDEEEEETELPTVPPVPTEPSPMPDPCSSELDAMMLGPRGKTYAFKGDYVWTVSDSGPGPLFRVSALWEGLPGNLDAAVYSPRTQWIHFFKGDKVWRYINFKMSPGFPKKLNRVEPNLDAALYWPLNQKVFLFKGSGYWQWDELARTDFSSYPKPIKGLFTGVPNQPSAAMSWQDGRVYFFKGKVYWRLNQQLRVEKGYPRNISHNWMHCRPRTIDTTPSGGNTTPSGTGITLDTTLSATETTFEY
Description: A 96-well plate (Fluoro B Plate, Dainippon Pharmaceutical) was filled in with 30 μL of buffer (0.25 M Tris-HCl (pH 8.0), 5 mM CaCl2, 100 mM NaCl, 10 μM ZnCl2) and 20 μL of the recombinant human liver-derived metalloprotease (2.4 mg/ml) obtained in Example 5. […] When actinonin (Peptide Institute), a metalloprotease inhibitor, was added at a varying concentration to this reaction mixture, it inhibited metalloprotease activity with a 50% inhibitory concentration of about 10 μM. It was, therefore, clear that this assay system can be used for the screening of inhibitors of the human liver-derived metalloprotease.

[2] = biological target: T1, human liver-derived metalloprotease; assay: PER assay of casein hydrolyzing activity in culture supernatant of COS-7 cells transfected with pTB1921; assay type: biochemical; design: expressed in transfected cells; host or cells: COS-7; conditions: supernatant activated with 1 mM aminophenyl-mercuric acetate, 37° C., 30 minutes
Description: Add aminophenyl mercuric acetate (final concentration 1 mM) to the protein of the present invention and react at 37° C. for 30 minutes. Electrophorese the reaction mixture on SDS-polyacrylamide gels (non-reducing) in accordance with PER (F. T. Lundy et al., Electrophoresis, 16, 43, 1995). Then, saturate the polyacrylamide gels with the substrate and react in the reaction medium at 37° C. for 16 hours. After the reaction, stain the gels with CBB to detect a proteolytic activity.
The pTB1921 obtained in Example 1, which had been inserted into the expression plasmied pCMV·SPORT (GIBCO/BRL), was used for expression in animal cells. The COS-7 cell line (purchased from the Institute for Fermentation, Osaka) was cultured in serum-containing DMEM and subcultured on the day before introduction of the gene. When the culture became 50% confluent, the COS-7 cells were washed with serum-free DMEM, and 2.5 ml of serum-free medium was added. […]
To the cell culture supernatant obtained in Example 2 was added aminophenyl-mercuric acetate (final concentration 1 mM) and the reaction was carried out at 37° C. for 30 minutes. The activity was then determined by the PER assay (F. T. Lundy et al., Electrophoresis, 16, 43, 1995). As a result, casein hydrolyzing activity which was not found in the mock culture supernatant was detected in the culture supernatant of COS-7 cells transfected with pTB1921.

Row | IC50 [1] | inhibition of casein hydrolyzing activity [2] | Structure (SMILES)
1 | ~10 µM | – | CCCCC[C@H](CC(=O)NO)C(=O)N[C@H](C(=O)N1CCC[C@H]1CO)C(C)C [actinonin]
2 | – | inhibited | c1cnc2c(c1)ccc1cccnc12 [o-phenanthroline]

— patent publication US7001997B2, “Proteins, their production and use” (Takeda Chemical Industries, Ltd., priority 1996, dated 2006)
